Data taken from patent US7495018B2, “Substituted 1,3-thiazole compounds, their production and use” (Takeda Pharmaceutical Company Limited, priority 2000, dated 2009).

Row | melting point | SMILES
1 | 168 to 169 °C | Cc1cccc(-c2nc(NC(=O)Nc3ccccc3)sc2-c2ccnc(C)c2)c1 [Example Compound 53-4, N-[4-(3-methylphenyl)-5-(2-methyl-4-pyridyl)-1,3-thiazol-2-yl]-N′-phenylurea]
2 | 152 to 153 °C | Cc1cccc(-c2nc(C)sc2-c2ccnc(N)c2)c1 [Example Compound 23-1, 4-[2-methyl-4-(3-methylphenyl)-1,3-thiazol-5-yl]-2-pyridylamine]
3 | 128 to 129 °C | CCOC(=O)Cc1nc(-c2cccc(C)c2)c(-c2ccnc(N)c2)s1 [Example Compound 18-5, Ethyl [5-(2-amino-4-pyridyl)-4-(3-methylphenyl)-1,3-thiazol-2-yl]acetate]
4 | 160 to 162 °C | Cc1cccc(-c2nc(-c3ccc(F)cc3)sc2-c2ccnc(N)c2)c1 [Example Compound 18-1, 4-[2-(4-fluorophenyl)-4-(3-methylphenyl)-1,3-thiazol-5-yl]-2-pyridylamine]
5 | 123 to 125 °C | CCc1nc(-c2cccc(C)c2)c(-c2ccnc(NC(=O)C3CCCC3)c2)s1 [Example Compound 29-1, N-[4-[2-ethyl-4-(3-methylphenyl)-1,3-thiazol-5-yl]-2-pyridyl]cyclopentanecarboxamide]
6 | 215 to 216 °C | Cc1cccc(-c2nc(NC(=O)c3cccnc3)sc2-c2ccnc(NC3CCCC3)c2)c1 [Example Compound 42-4, N-[5-(2-cyclopentylamino-4-pyridyl)-4-(3-methylphenyl)-1,3-thiazol-2-yl]nicotinamide]
7 | 154 to 155 °C | Cc1cccc(-c2nc(NC(=O)NOc3ccccc3)sc2-c2ccnc(C)c2)c1 [Example Compound 64, N-[4-(3-methylphenyl)-5-(2-methyl-4-pyridyl)-1,3-thiazol-2-yl]-N′-phenyloxyurea]
8 | 91 to 92 °C | CCC(=O)Nc1cc(-c2sc(CCSC)nc2-c2cccc(Cl)c2)ccn1 [Example 102-2, N-[4-[4-(3-chlorophenyl)-2-[2-(methylthio)ethyl]-1,3-thiazol-5-yl]-2-pyridyl]propionamide]
9 | 91 to 92 °C | Cc1cccc(-c2ncsc2-c2ccnc(N)c2)c1 [Example Compound 27-1, 4-[4-(3-methylphenyl)-1,3-thiazol-5-yl]-2-pyridylamine]
10 | 164 to 165 °C | CNc1nc(-c2cccc(C)c2)c(-c2ccnc(C)c2)s1 [Example Compound 9, N-methyl-[4-(3-methylphenyl)-5-(2-methyl-4-pyridyl)-1,3-thiazol-2-yl]amine]
11 | 106 to 107 °C | CCc1nc(-c2cccc(Cl)c2)c(-c2ccnc(NC3CCCCC3)c2)s1 [Example Compound 36-10, 4-[4-(3-chlorophenyl)-2-ethyl-1,3-thiazol-5-yl]-N-cyclohexyl-2-pyridylamine]
12 | 132 to 133 °C | CCc1nc(-c2cccc(Cl)c2)c(-c2ccnc(N)c2)s1 [Example Compound 20-1, 4-[2-ethyl-4-(3-chlorophenyl)-1,3-thiazol-5-yl]-2-pyridylamine]
13 | 266 to 267 °C | CC(=O)Nc1nc(-c2cc(C)cc(C)c2)c(-c2cc(C)nc(C)c2)s1 [Example Compound 40-3, N-[4-(3,5-dimethylphenyl)-5-(2,6-dimethyl-4-pyridyl)-1,3-thiazol-2-yl]acetamide]
14 | 149 to 151 °C | Cc1cccc(-c2nc(NC(=O)NCCCl)sc2-c2ccnc(C)c2)c1
15 | 153 to 154 °C | Cc1cccc(-c2nc(-c3ccc(S(C)(=O)=O)cc3)sc2-c2ccnc(N3CCN(C)CC3)c2)c1 [Example Compound 37-5, 4-(3-methylphenyl)-5-[2-(4-methyl-1-piperazinyl)-4-pyridyl]-2-(4-methylsulfonylphenyl)-1,3-thiazole]
16 | 233 to 234 °C | Cc1cc(-c2sc(N)nc2-c2ccc(F)cc2)ccn1 [Example Compound 7-8, [4-(4-fluorophenyl)-5-(2-methyl-4-pyridyl)-1,3-thiazol-2-yl]amine]
17 | 177 to 180 °C | CCNC(=O)Nc1cc(-c2sc(CC)nc2-c2cccc(C)c2)ccn1 [Example 108, N-ethyl-N′-[4-[2-ethyl-4-(3-methylphenyl)-1,3-thiazol-5-yl]-2-pyridyl]urea]
18 | 110 to 112 °C | CCc1nc(-c2cccc(C)c2)c(-c2ccnc(NC3CCCCC3)c2)s1 [Example Compound 36-4, N-cyclohexyl-4-[2-ethyl-4-(3-methylphenyl)-1,3-thiazol-5-yl]-2-pyridylamine]
19 | 72 to 74 °C | CCCc1cccc(-c2nc(CC)sc2-c2ccnc(N)c2)c1 [Example Compound 20-11, 4-[2-ethyl-4-(3-propylphenyl)-1,3-thiazol-5-yl]-2-pyridylamine]
20 | 217 to 220 °C | Cc1cc(C)cc(-c2nc(-c3ccc(S(C)(=O)=O)cc3)sc2-c2cc(C)nc(C)c2)c1 [Example Compound 58-3, 4-(3,5-dimethylphenyl)-5-(2,6-dimethyl-4-pyridyl)-2-(4-methylsulfonylphenyl)-1,3-thiazole]
21 | 154 to 155 °C | CCc1nc(-c2cccs2)c(-c2ccnc(NC(C)=O)c2)s1 [Example Compound 30-4, N-[4-[2-ethyl-4-(2-thienyl)-1,3-thiazol-5-yl]-2-pyridyl]acetamide]
22 | 124 to 127 °C | CCC(=O)Nc1cc(-c2sc(C(C)OC(=O)c3ccccc3)nc2-c2cccc(Cl)c2)ccn1 (stereo not drawn) [Example 102-6, 1-[4-(3-chlorophenyl)-5-(2-propionylamino-4-pyridyl)-1,3-thiazol-2-yl]ethyl benzoate]
23 | 114 to 115 °C | CCCCCC(=O)Nc1cc(-c2sc(CC)nc2-c2cccc(Cl)c2)ccn1 [Example 88-2, N-[4-[4-(3-chlorophenyl)-2-ethyl-1,3-thiazol-5-yl]-2-pyridyl]hexanamide]
24 | 96 to 97 °C | CSCCc1nc(-c2cccc(Cl)c2)c(-c2ccnc(N)c2)s1
25 | 99 to 100 °C | CCCc1nc(-c2cccc(Cl)c2)c(-c2ccnc(N)c2)s1 [Example Compound 21-1, 4-[4-(3-chlorophenyl)-2-propyl-1,3-thiazol-5-yl]-2-pyridylamine]
26 | 112 to 115 °C | CC(=O)Nc1cc(-c2sc(C)nc2-c2cccc(Cl)c2)ccn1 [Example Compound 30-1, N-[4-[4-(3-chlorophenyl)-2-methyl-1,3-thiazol-5-yl]-2-pyridyl]acetamide]
27 | 207 to 208 °C | CSc1ccc(-c2nc(-c3cccc(Cl)c3)c(-c3ccnc(NC(C)=O)c3)s2)cc1 [Example Compound 30-5, N-[4-[4-(3-chlorophenyl)-2-[4-(methylthio)phenyl]-1,3-thiazol-5-yl]-2-pyridyl]acetamide]
28 | 141 to 142 °C | CCc1nc(-c2cccc(F)c2)c(-c2ccnc(NC(C)=O)c2)s1 [Example 82-5, N-[4-[2-ethyl-4-(3-fluorophenyl)-1,3-thiazol-5-yl]-2-pyridyl]acetamide]
29 | 236 to 237 °C | CC(=O)Nc1nc(-c2cc(C)cc(C)c2)c(-c2ccnc(C)c2)s1 [Example Compound 40-1, N-[4-(3,5-dimethylphenyl)-5-(2-methyl-4-pyridyl)-1,3-thiazol-2-yl]acetamide]
30 | 242 to 243 °C | Cc1cccc(-c2nc(NC(=O)c3ccc(C)nc3)sc2-c2ccnc(NC3CCCCC3)c2)c1 [Example Compound 46-1, N-[5-(2-cyclohexylamino-4-pyridyl)-4-(3-methylphenyl)-1,3-thiazol-2-yl]-6-methylnicotinamide]
